Measurements from PubChem BioAssay AID330 (DTP/NCI, 2004).
Values joined by “and” are separate entries in the source; they are usually repeats but may differ in a detail not shown here. Equal values may be shown once. Toxic doses and inconclusive results are not listed.

Tested on: P388 leukemia ip, CD2F1 mice, survival T/C
Assay: NCI In Vivo Anticancer Drug Screen. Data for tumor model P388 Leukemia (intraperitoneal) in CD2F1 (CDF1) mice
Details: endpoint: median survival time, higher = longer survival
Outline: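 Mice carrying the transplanted tumor received test compound or vehicle. Survival was recorded in each group, and the value is the treated-group measurement divided by that of the vehicle-treated control group.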

[1] = dose: 60.0 mg/kg/injection, schedule: Q01DX005 (ip), vehicle: Klucel (hydroxypropylcellulose) (HPC)
[2] = dose: 120.0 mg/kg/injection, schedule: Q01DX005 (ip), vehicle: Klucel (hydroxypropylcellulose) (HPC)
[3] = dose: 240.0 mg/kg/injection, schedule: Q01DX005 (ip), vehicle: Klucel (hydroxypropylcellulose) (HPC)
[4] = dose: 60.0 mg/kg/injection, schedule: Q01DX005 (ip), vehicle: saline with Tween-80
[5] = dose: 120.0 mg/kg/injection, schedule: Q01DX005 (ip), vehicle: saline with Tween-80
[6] = dose: 50.0 mg/kg/injection, schedule: Q01DX005 (ip), vehicle: saline with Tween-80
[7] = dose: 100.0 mg/kg/injection, schedule: Q01DX005 (ip), vehicle: saline with Tween-80

In the case of `C=C1C(=O)C23CC1CCC2C12COC(OC(=O)CCCCCCCCCCCCC)C1C(C)(C)C(O)CC2OC3=O` (centres undefined), the T/C (dose: 7.5 mg/kg/injection, schedule: Q01DX009 (ip), vehicle: saline with Tween-80) is reported as 109 % of control, the T/C (dose: 15.0 mg/kg/injection, schedule: Q01DX009 (ip), vehicle: saline with Tween-80) is reported as 109 % of control and the T/C (dose: 30.0 mg/kg/injection, schedule: Q01DX009 (ip), vehicle: saline with Tween-80) is reported as 100 % of control. The T/C (dose: 60.0 mg/kg/injection, schedule: Q01DX009 (ip), vehicle: saline with Tween-80) was 111 % of control.
With `N#Cc1c(Cl)cccc1N1CCSCC1` the T/C [1] was 94 % of control, the T/C [2] was 102 % of control and the T/C [3] was 100 % of control.
In the case of `CN(C)/[N+]([O-])=N/N1C(=O)c2ccccc2C1=O`, the T/C (dose: 50.0 mg/kg/injection, schedule: Q01DX005 (ip), vehicle: Klucel (hydroxypropylcellulose) (HPC)) is reported as 101 % of control, the T/C (dose: 100.0 mg/kg/injection, schedule: Q01DX005 (ip), vehicle: Klucel (hydroxypropylcellulose) (HPC)) is reported as 105 % of control and the T/C (dose: 200.0 mg/kg/injection, schedule: Q01DX005 (ip), vehicle: Klucel (hydroxypropylcellulose) (HPC)) is reported as 101 % of control.
With `CCOC(=O)c1cc2c(oc1=O)-c1cc(C)ccc1OC2C` (centres undefined) the T/C [4] was 104 % of control, the T/C [5] was 110 % of control and the T/C (dose: 240.0 mg/kg/injection, schedule: Q01DX005 (ip), vehicle: saline with Tween-80) was 105 % of control.
With `O=C1CC(O)C(Cc2ccccc2)N1` (centres undefined) the T/C [6] was 97 % of control, the T/C [7] was 98 % of control and the T/C (dose: 200.0 mg/kg/injection, schedule: Q01DX005 (ip), vehicle: saline with Tween-80) was 97 % of control.
`Cc1c2ccncc2c(C)c2c1[nH]c1ccc(-c3ccccc3)cc12` was tested, and the T/C (dose: 20.0 mg/kg/injection, schedule: Q01DX001 (ip), vehicle: saline with Tween-80) was 102 % of control, the T/C (dose: 40.0 mg/kg/injection, schedule: Q01DX001 (ip), vehicle: saline with Tween-80) was 100 % of control and the T/C (dose: 80.0 mg/kg/injection, schedule: Q01DX001 (ip), vehicle: saline with Tween-80) was 99 % of control.
For `O.O=[N+]([O-])O.[NH2-].[NH2-].[Pt+2]`, the T/C (dose: 0.04 mg/kg/injection, schedule: Q01DX009 (ip), vehicle: other) was 118 % of control, the T/C (dose: 0.16 mg/kg/injection, schedule: Q01DX009 (ip), vehicle: other) was 91 % of control and the T/C (dose: 0.31 mg/kg/injection, schedule: Q01DX009 (ip), vehicle: other) was 150 % of control.
In the case of `CCC1(O)C(=O)OCc2c1cc1n(c2=O)Cc2cc3cc4c(cc3nc2-1)OCO4` (centres undefined), the T/C (dose: 1.0 mg/kg/injection, schedule: Q01DX005 (ip), vehicle: saline with Tween-80) is reported as 177 % of control and the T/C (dose: 2.0 mg/kg/injection, schedule: Q01DX005 (ip), vehicle: saline with Tween-80) is reported as 86 % of control.
`Cc1cc(=O)n2c(n1)sc1cc3ccccc3cc12` was tested, and the T/C (dose: 100.0 mg/kg/injection, schedule: Q04DX002 (ip), vehicle: Klucel (hydroxypropylcellulose) (HPC)) was 98 % of control, the T/C (dose: 200.0 mg/kg/injection, schedule: Q04DX002 (ip), vehicle: Klucel (hydroxypropylcellulose) (HPC)) was 100 % of control and the T/C (dose: 400.0 mg/kg/injection, schedule: Q04DX002 (ip), vehicle: Klucel (hydroxypropylcellulose) (HPC)) was 99 % of control.
For `CCOC(=O)c1ccc(NC(=O)Nc2nc(C)cs2)cc1`, the T/C (dose: 12.5 mg/kg/injection, schedule: Q01DX009 (ip), vehicle: distilled water + Tween-80) was 104 % of control and 106 % of control, the T/C (dose: 25.0 mg/kg/injection, schedule: Q01DX009 (ip), vehicle: distilled water + Tween-80) was 99 % of control and 107 % of control and the T/C (dose: 50.0 mg/kg/injection, schedule: Q01DX009 (ip), vehicle: distilled water + Tween-80) was 109 % of control and 111 % of control. The T/C (dose: 100.0 mg/kg/injection, schedule: Q01DX009 (ip), vehicle: distilled water + Tween-80) was 118 % of control.
For `O=S(=O)(O)CNc1ccc(Br)cc1`, the T/C (dose: 100.0 mg/kg/injection, schedule: Q04DX003 (ip), vehicle: saline) was 99 % of control, the T/C (dose: 200.0 mg/kg/injection, schedule: Q04DX003 (ip), vehicle: saline) was 99 % of control and the T/C (dose: 400.0 mg/kg/injection, schedule: Q04DX003 (ip), vehicle: saline) was 89 % of control.
With `N#CC1(NO)CCCC1` the T/C (dose: 50.0 mg/kg/injection, schedule: Q01DX009 (ip), vehicle: saline) was 94 % of control, the T/C (dose: 100.0 mg/kg/injection, schedule: Q01DX009 (ip), vehicle: saline) was 98 % of control and the T/C (dose: 200.0 mg/kg/injection, schedule: Q01DX009 (ip), vehicle: saline) was 89 % of control.
For `CS(C)(O)NC(N)=O`, the T/C (dose: 50.0 mg/kg/injection, schedule: Q01DX005 (ip), vehicle: DMSO) was 121 % of control, the T/C (dose: 100.0 mg/kg/injection, schedule: Q01DX005 (ip), vehicle: DMSO) was 119 % of control and the T/C (dose: 100.0 mg/kg/injection, schedule: Q01DX005 (ip), vehicle: other) was 121 % of control. For the same compound, the T/C (dose: 200.0 mg/kg/injection, schedule: Q01DX005 (ip), vehicle: DMSO) was 114 % of control and the T/C (dose: 400.0 mg/kg/injection, schedule: Q01DX005 (ip), vehicle: DMSO) was 124 % of control.
`Ic1ccc2c(c1)N(c1ccccc1)c1cc(N=c3ccc4nc5ccc(I)cc5n(-c5ccccc5)c-4c3)ccc1N2` was tested, and the T/C (dose: 100.0 mg/kg/injection, schedule: Q01DX009 (ip), vehicle: Klucel (hydroxypropylcellulose) (HPC)) was 96 % of control and the T/C (dose: 200.0 mg/kg/injection, schedule: Q01DX009 (ip), vehicle: Klucel (hydroxypropylcellulose) (HPC)) was 89 % of control.
`COc1cc2c(c(OC)c1OC)-c1ccc(SC)c(=O)cc1C(NC(=O)COP(=O)(O)OCC(=O)NC1CCc3cc(OC)c(OC)c(OC)c3-c3ccc(SC)c(=O)cc31)CC2` (centres undefined) was tested, and the T/C (dose: 0.78 mg/kg/injection, schedule: Q01DX009 (ip), vehicle: water) was 121 % of control, the T/C (dose: 1.56 mg/kg/injection, schedule: Q01DX009 (ip), vehicle: water) was 114 % of control and the T/C (dose: 6.25 mg/kg/injection, schedule: Q01DX009 (ip), vehicle: water) was 150 % of control.
With `CCCOC(=O)/C=C(\I)C(=O)OCCC` the T/C (dose: 12.5 mg/kg/injection, schedule: Q01DX009 (ip), vehicle: saline with Tween-80) was 119 % of control, the T/C (dose: 25.0 mg/kg/injection, schedule: Q01DX009 (ip), vehicle: saline with Tween-80) was 110 % of control and the T/C (dose: 50.0 mg/kg/injection, schedule: Q01DX009 (ip), vehicle: saline with Tween-80) was 110 % of control and 92 % of control.
`COC(=O)c1ncn(Cc2ccccc2)c1N` was tested, and the T/C (dose: 25.0 mg/kg/injection, schedule: Q04DX002 (ip), vehicle: saline with Tween-80) was 101 % of control, the T/C (dose: 50.0 mg/kg/injection, schedule: Q04DX002 (ip), vehicle: saline with Tween-80) was 91 % of control and the T/C (dose: 100.0 mg/kg/injection, schedule: Q04DX002 (ip), vehicle: saline with Tween-80) was 104 % of control and 93 % of control.
For `O=c1c2ccccc2nnn1Cc1ccco1`, the T/C (dose: 1.25 mg/kg/injection, schedule: Q01DX005 (ip), vehicle: saline with Tween-80) was 100 % of control, the T/C (dose: 12.5 mg/kg/injection, schedule: Q01DX005 (ip), vehicle: saline with Tween-80) was 92 % of control and the T/C (dose: 25.0 mg/kg/injection, schedule: Q01DX005 (ip), vehicle: saline with Tween-80) was 100 % of control and 90 % of control. For the same compound, the T/C [6] was 104 % of control and 90 % of control and the T/C [7] was 92 % of control and 93 % of control.
In the case of `COC(=O)[C@H]1O[C@H]1c1cc[n+]([O-])cc1`, the T/C (dose: 25.0 mg/kg/injection, schedule: Q01DX005 (ip), vehicle: water) is reported as 101 % of control, the T/C (dose: 50.0 mg/kg/injection, schedule: Q01DX005 (ip), vehicle: water) is reported as 102 % of control and the T/C (dose: 100.0 mg/kg/injection, schedule: Q01DX005 (ip), vehicle: water) is reported as 105 % of control. For the same compound, the T/C (dose: 200.0 mg/kg/injection, schedule: Q01DX005 (ip), vehicle: water) was 109 % of control.
`O=C(NC(=S)c1ccc(Cl)cc1)Nc1ccc(Cl)c(Cl)c1` was tested, and the T/C (dose: 5.0 mg/kg/injection, schedule: Q01DX009 (ip), vehicle: saline with Tween-80) was 87 % of control, the T/C (dose: 10.0 mg/kg/injection, schedule: Q01DX009 (ip), vehicle: saline with Tween-80) was 96 % of control and the T/C (dose: 20.0 mg/kg/injection, schedule: Q01DX009 (ip), vehicle: saline with Tween-80) was 100 % of control.
With `c1ccc2c(c1)-c1nc-2nc2[nH]c(nc3nc(nc4[nH]c(n1)c1ccccc41)-c1ccccc1-3)c1cc3c4nc5nc(nc6[nH]c(nc7nc(nc([nH]4)c3cc21)-c1ccccc1-7)c1ccccc61)-c1ccccc1-5` the T/C [1] was 106 % of control, the T/C [2] was 100 % of control and the T/C [3] was 97 % of control.
With `O=c1c2cc(O)ccc2oc2cc(O)cc(O)c12` the T/C (dose: 10.0 mg/kg/injection, schedule: Q01DX009 (ip), vehicle: saline) was 104 % of control, the T/C (dose: 20.0 mg/kg/injection, schedule: Q01DX009 (ip), vehicle: saline) was 111 % of control and the T/C (dose: 40.0 mg/kg/injection, schedule: Q01DX009 (ip), vehicle: saline) was 111 % of control. The T/C (dose: 80.0 mg/kg/injection, schedule: Q01DX009 (ip), vehicle: saline) was 105 % of control.
With `COc1cc(/C=N/N2CN(C(C)C(=O)O)B(NCCC(C)C)N=C2N)cc(OC)c1` (centres undefined) the T/C [4] was 104 % of control and the T/C [5] was 111 % of control.
